Experimental data as given in patent US8808702B2, “Sulfide, sulfoxide and sulfone chalcone analogues, derivatives thereof and therapeutic uses thereof” (Temple University-of the Commonwealth System of Higher …, priority 2006, dated 2014).
Like-named read-outs stand apart in the source and are kept apart here.

Tests used:
[1] = tested on: K562 (chronic myelogenous leukaemia); assay: Effect of compounds on tumor cell lines (assay of Latham et al.), K562; format: cell-based; conditions: K562 cells, read-out: K 562 potency (IC50)
In short: (§1)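 K562 or DU145 cells plated at 2.5×10^4 cells/well, treated 24 h later with compound in DMSO at 1 μM to 100 μM (0.1 μM to 100 μM for one compound). Activity judged by microscopic observation after 96 h; where needed, viable cells counted by trypan blue exclusion.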

DU145 (prostate cancer) = assay: Effect of compounds on tumor cell lines (assay of Latham et al.), DU145; format: cell-based; conditions: DU145 cells, read-out: DU 145 potency (IC50)
In short: as §1

[2] = Table 1, examined 96 hours after treatment, 1 μM to 100 μM in DMSO
[3] = 96 hours after treatment, 1 μM to 100 μM

SMILES | IC50 [1, 2] | IC50 (DU145 (prostate cancer); [2]) | IC50 [1, 3] | IC50 (DU145 (prostate cancer); [3]) | also measured
O=C(C(=Cc1ccc(F)cc1F)Sc1ccc(Br)cc1)c1ccc(Br)cc1 [Example 17] | 1 to 10 µM | 1 to 10 µM | – | – | –
CSc1ccc(/C=C(\C(=O)c2ccc(Br)cc2)S(=O)(=O)Cc2ccc(C)cc2)cc1 [Example 436] | – | – | – | – | IC50 ([1]; Homo sapiens, Table 4, examined 96 hours after treatment, 1 μM to 100 μM in DMSO): 10 to 25 µM; IC50 (DU145 (prostate cancer); Homo sapiens, DU-145, Table 4, examined 96 hours after treatment, 1 μM to 100 μM in DMSO): 10 to 25 µM
O=C(C(=Cc1ccc(Br)cc1)SCc1ccc(Cl)cc1)c1ccc(Cl)cc1 [Example 215] | – | – | 1 to 10 µM | 1 to 10 µM | –
O=C(O)c1ccc(C(=O)/C(=C\c2ccc(Br)cc2)SCc2ccc(Br)cc2)cc1 [Example 166] | – | – | 1 to 10 µM | 1 to 10 µM | –
CCOC(=O)c1c(C)[nH]c(C=C(SCc2ccc(Br)cc2)C(=O)c2ccc(SCc3ccc(Br)cc3)c([N+](=O)[O-])c2)c1C [Example 309] | – | – | > 100 µM | > 100 µM | –
O=C(C(=Cc1ccc(O)c([N+](=O)[O-])c1)Sc1c(F)c(F)c(F)c(F)c1F)c1ccc(Br)cc1 [Example 2] | 10 to 25 µM | 10 to 25 µM | – | – | –
COc1ccccc1C=C(SCc1ccc(C)cc1)C(=O)c1ccc(Cl)cc1 [Example 279] | – | – | 10 to 25 µM | 10 to 25 µM | –
CN1CCN(c2ccc(C=C(SCc3ccc(Br)cc3)C(=O)c3ccc(C(=O)O)cc3)cc2[N+](=O)[O-])CC1 [Example 308] | – | – | 1 to 10 µM | 10 to 25 µM | –
O=C(C(=Cc1ccc(Cl)cc1)SCc1ccc(Cl)cc1Cl)c1ccc(Cl)cc1 [Example 122] | – | – | 1 to 10 µM | 10 to 25 µM | –
Cc1ccc(SC(=Cc2ccc[nH]2)C(=O)c2ccc(Cl)cc2)cc1 [Example 76] | 10 to 25 µM | 10 to 25 µM | – | – | –
COc1cc(OC)c(C=C(SCc2ccccc2Cl)C(=O)c2ccc(Cl)cc2)c(OC)c1 [Example 126] | – | – | 10 to 25 µM | 50 to 100 µM | –
CN(C)c1ccc(C=C(SCc2ccc(Cl)cc2Cl)C(=O)c2ccc(Cl)cc2)cc1 [Example 120] | – | – | > 100 µM | 50 to 100 µM | –
O=C(C(=Cc1cc(Cl)cc(Cl)c1Cl)Sc1ccccc1Br)c1ccc(Cl)cc1 [Example 3] | 50 to 100 µM | 25 to 50 µM | – | – | –
CN(C)c1ccc(C=C(SCc2ccc(F)cc2)C(=O)c2ccc(C(=O)O)cc2)cc1 [Example 250] | – | – | 10 to 25 µM | 25 to 50 µM | –
Cc1ccc(CSC(=Cc2c[nH]c3ccc(Cl)cc23)C(=O)c2ccc(Cl)cc2)cc1 [Example 296] | – | – | 1 to 10 µM | 1 to 10 µM | –
COc1ccc(C=C(SCc2ccc(Cl)cc2)C(=O)c2ccc(Cl)cc2)cc1 [Example 228] | – | – | 1 to 10 µM | 10 to 25 µM | –
O=C(C(=Cc1ccc([N+](=O)[O-])c(O)c1)Sc1ccc(Br)cc1)c1c(F)c(F)c(F)c(F)c1F [Example 30] | 1 to 10 µM | 1 to 10 µM | – | – | –
O=C(C(=Cc1c(O)cc(O)cc1O)Sc1ccc(Br)cc1)c1ccc(Cl)cc1 [Example 13] | 50 to 100 µM | 25 to 50 µM | – | – | –
COc1ccc(SC(=Cc2ccccc2OCc2ccccc2)C(=O)c2ccc(Cl)cc2)cc1 [Example 62] | 1 to 10 µM | 1 to 10 µM | – | – | –
Cc1ccc(CS/C(=C/c2ccc(F)c([N+](=O)[O-])c2)C(=O)c2ccc(Cl)c([N+](=O)[O-])c2)cc1 [Example 349] | – | – | ≤ 1 µM | 1 to 10 µM | –
O=C(O)c1ccc(C(=O)C(=Cc2ccc(O)c([N+](=O)[O-])c2)SCc2ccc(F)cc2)cc1 [Example 262] | – | – | 50 to 100 µM | > 100 µM | –
COc1ccc(C=C(SCc2ccc(Cl)cc2)C(=O)c2ccc(Br)cc2)cc1 [Example 226] | – | – | 1 to 10 µM | 25 to 50 µM | –
N#Cc1ccc(C(=O)/C(=C\c2ccc(O)c([N+](=O)[O-])c2)SCc2ccc(Br)cc2)cc1 [Example 182] | – | – | 10 to 25 µM | 10 to 25 µM | –
O=C(C(=Cc1ccc(C(=O)N2CCN(CCO)CC2)cc1)SCc1ccc(F)cc1)c1ccc(F)c([N+](=O)[O-])c1 [Example 331] | – | – | ≤ 1 µM | 1 to 10 µM | –
O=C(C(=Cc1ccc(OCc2ccccc2)cc1)SCc1cccc(Cl)c1)c1ccc(Br)cc1 [Example 146] | – | – | 1 to 10 µM | 1 to 10 µM | –
COc1ccc(C=C(SCc2ccc(Cl)cc2)C(=O)c2ccc(C(=O)O)cc2)cc1 [Example 227] | – | – | 25 to 50 µM | 25 to 50 µM | –
O=C(C(=Cc1ccc(F)cc1Cl)Sc1ccc(Br)cc1)c1ccc(Br)cc1 [Example 22] | 1 to 10 µM | 1 to 10 µM | – | – | –
O=C(C(=Cc1ccc(Br)cc1)Sc1ccc(Br)cc1)c1ccc(Cl)cc1 [Example 36] | 1 to 10 µM | 1 to 10 µM | – | – | –
COc1cc(OC)c(C=C(SCc2ccc(Cl)cc2Cl)C(=O)c2ccc(Cl)cc2)c(OC)c1 [Example 116] | – | – | 25 to 50 µM | 1 to 10 µM | –
